Here are results for 19 compounds from PubChem BioAssay AID248 (DTP/NCI, 2004).

Each structure is given as a SMILES string. “And” between values parts separate entries of the source, which are not always exact repeats. Equal entries are not always repeated. Toxic doses and inconclusive results are not listed.

The test system of the assay is L1210 leukemia ip in BDF1 mice, survival T/C. As to the kind of experiment: NCI In Vivo Anticancer Drug Screen. Data for tumor model L1210 Leukemia (intraperitoneal) in B6D2F1 (BDF1) mice. The conditions noted are these: endpoint: mean survival time, higher = longer survival. In a few lines: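 Read-out is survival time, reported as the treated-group measurement over the vehicle-control measurement.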

Where [1] appears, read: dose: 100.0 mg/kg/injection, schedule: Q01DX009 (ip), vehicle: carboxymethylcellulose (CMC).
Setting [2] is: dose: 100.0 mg/kg/injection, schedule: Q04DX002 (ip), vehicle: carboxymethylcellulose (CMC).
[3] abbreviates: dose: 100.0 mg/kg/injection, schedule: Q04DX003 (ip), vehicle: carboxymethylcellulose (CMC).
Where [4] appears, read: dose: 200.0 mg/kg/injection, schedule: Q01DX009 (ip), vehicle: carboxymethylcellulose (CMC).
Where [5] appears, read: dose: 200.0 mg/kg/injection, schedule: Q04DX002 (ip), vehicle: carboxymethylcellulose (CMC).
Where [6] appears, read: dose: 200.0 mg/kg/injection, schedule: Q04DX003 (ip), vehicle: carboxymethylcellulose (CMC).
The mark [7] stands for this setting: dose: 400.0 mg/kg/injection, schedule: Q04DX002 (ip), vehicle: carboxymethylcellulose (CMC).
Setting [8] is: dose: 25.0 mg/kg/injection, schedule: Q01DX009 (ip), vehicle: saline with Tween-80.
[9] abbreviates: dose: 50.0 mg/kg/injection, schedule: Q01DX009 (ip), vehicle: saline with Tween-80.
Setting [10] is: dose: 100.0 mg/kg/injection, schedule: Q01DX009 (ip), vehicle: saline with Tween-80.
The mark [11] stands for this setting: dose: 200.0 mg/kg/injection, schedule: Q01DX009 (ip), vehicle: saline with Tween-80.
[12] abbreviates: dose: 400.0 mg/kg/injection, schedule: Q01DX009 (ip), vehicle: saline with Tween-80.
[13] abbreviates: dose: 100.0 mg/kg/injection, schedule: Q04DX002 (ip), vehicle: Klucel (hydroxypropylcellulose) (HPC).
The mark [14] stands for this setting: dose: 200.0 mg/kg/injection, schedule: Q04DX002 (ip), vehicle: Klucel (hydroxypropylcellulose) (HPC).
Where [15] appears, read: dose: 400.0 mg/kg/injection, schedule: Q01DX001 (ip), vehicle: carboxymethylcellulose (CMC).

With `CCOP(=O)(Cc1ccc(Cl)cc1)OCC`, the T/C by setting is: under setting [1], 102 % of control and 90 % of control; under setting [2], 98 % of control and 107 % of control; under setting [3], 96 % of control; under setting [4], 104 % of control and 107 % of control; under setting [5], 93 % of control and 101 % of control; under setting [6], 100 % of control. Also, under setting [7], the T/C was 93 % of control and 95 % of control.
As to `O=C(COc1ccccc1)N/N=C/c1cccc([N+](=O)[O-])c1`, the T/C under setting [8] was 92 % of control, the T/C under setting [9] was 86 % of control and the T/C under setting [10] was 86 % of control.
As for `CCC(C)N=[N+]([O-])CC` (stereo not given), the T/C is, setting by setting: (dose: 100.0 mg/kg/injection, schedule: Q01DX001 (ip), vehicle: acetone) 101 % of control; (dose: 200.0 mg/kg/injection, schedule: Q01DX001 (ip), vehicle: acetone) 112 % of control; (dose: 400.0 mg/kg/injection, schedule: Q01DX001 (ip), vehicle: acetone) 91 % of control.
For the compound `COC(=O)c1ccccc1NCCCC(=O)O`, the T/C by setting is: under setting [10], 97 % of control; (dose: 100.0 mg/kg/injection, schedule: Q04DX003 (ip), vehicle: saline with Tween-80) 103 % of control; under setting [11], 97 % of control; (dose: 200.0 mg/kg/injection, schedule: Q04DX003 (ip), vehicle: saline with Tween-80) 97 % of control; under setting [12], 102 % of control; (dose: 400.0 mg/kg/injection, schedule: Q04DX003 (ip), vehicle: saline with Tween-80) 98 % of control.
Turning to `CC(=O)OCC(OC(C)=O)C(OC(C)=O)C(OC(C)=O)C(O)C#N` (stereo not given), the T/C reads like this: (dose: 12.5 mg/kg/injection, schedule: Q01DX009 (ip), vehicle: saline with Tween-80) 93 % of control; under setting [8], 93 % of control; under setting [9], 97 % of control and 100 % of control.
With `CCCCCCCCOC(=O)c1ccc2c(c1)Nc1cc3ccccc3cc1N2`, the T/C reads like this: under setting [13], 105 % of control; under setting [14], 101 % of control; (dose: 400.0 mg/kg/injection, schedule: Q04DX002 (ip), vehicle: Klucel (hydroxypropylcellulose) (HPC)) 92 % of control.
Consider `CN(C)c1ccc(N=O)cc1`, for which the T/C by setting is: (dose: 0.78 mg/kg/injection, schedule: Q04DX002 (ip), vehicle: saline) 89 % of control; (dose: 1.56 mg/kg/injection, schedule: Q01DX009 (ip), vehicle: saline) 93 % of control; (dose: 1.56 mg/kg/injection, schedule: Q04DX002 (ip), vehicle: saline) 95 % of control; (dose: 3.13 mg/kg/injection, schedule: Q01DX009 (ip), vehicle: saline) 93 % of control; (dose: 3.13 mg/kg/injection, schedule: Q04DX002 (ip), vehicle: saline) 95 % of control; (dose: 6.25 mg/kg/injection, schedule: Q01DX009 (ip), vehicle: saline) 97 % of control. For the same compound, the T/C (dose: 6.25 mg/kg/injection, schedule: Q04DX002 (ip), vehicle: saline) was 100 % of control.
`CN(C)C(=S)SCC(=O)NC(CO)C(=O)O` (stereo not given): the T/C by setting is: (dose: 100.0 mg/kg/injection, schedule: Q04DX002 (ip), vehicle: saline with Tween-80) 100 % of control; (dose: 200.0 mg/kg/injection, schedule: Q04DX002 (ip), vehicle: saline with Tween-80) 107 % of control; (dose: 400.0 mg/kg/injection, schedule: Q04DX002 (ip), vehicle: saline with Tween-80) 111 % of control.
With `C=CCNC(N)=S`, the T/C is, setting by setting: (dose: 100.0 mg/kg/injection, schedule: Q04DX002 (ip), vehicle: saline) 100 % of control; (dose: 200.0 mg/kg/injection, schedule: Q04DX002 (ip), vehicle: saline) 107 % of control; (dose: 400.0 mg/kg/injection, schedule: Q04DX002 (ip), vehicle: saline) 95 % of control.
Take `CNC(=O)NC1CCCCC1`: the T/C is 106 % of control (dose: 100.0 mg/kg/injection, schedule: Q01DX001 (ip), vehicle: carboxymethylcellulose (CMC)); 92 % of control and 98 % of control under setting [1]; 97 % of control under setting [2]; 100 % of control under setting [3]; 103 % of control (dose: 200.0 mg/kg/injection, schedule: Q01DX001 (ip), vehicle: carboxymethylcellulose (CMC)); 95 % of control and 96 % of control under setting [4]. The T/C was 89 % of control under setting [5]; 97 % of control under setting [6]; 106 % of control under setting [15]; 101 % of control (dose: 400.0 mg/kg/injection, schedule: Q01DX009 (ip), vehicle: carboxymethylcellulose (CMC)); 100 % of control under setting [7]; 100 % of control (dose: 400.0 mg/kg/injection, schedule: Q04DX003 (ip), vehicle: carboxymethylcellulose (CMC)).
Take `O=C(CCl)c1cnc2ccccc2n1`: the T/C reads like this: (dose: 5.0 mg/kg/injection, schedule: Q01DX009 (ip), vehicle: saline) 102 % of control; (dose: 5.0 mg/kg/injection, schedule: Q04DX003 (ip), vehicle: saline) 103 % of control; (dose: 10.0 mg/kg/injection, schedule: Q01DX009 (ip), vehicle: saline) 98 % of control; (dose: 10.0 mg/kg/injection, schedule: Q04DX003 (ip), vehicle: saline) 100 % of control; (dose: 20.0 mg/kg/injection, schedule: Q01DX009 (ip), vehicle: saline) 93 % of control; (dose: 20.0 mg/kg/injection, schedule: Q04DX003 (ip), vehicle: saline) 100 % of control.
In the case of `CN(C)c1ccc(C(=C2C=CC(=[N+](C)C)C=C2)c2ccccc2Cl)cc1`, the T/C runs as follows: (dose: 50.0 mg/kg/injection, schedule: Q01DX001 (ip), vehicle: saline) 92 % of control; (dose: 100.0 mg/kg/injection, schedule: Q01DX001 (ip), vehicle: saline) 92 % of control.
Regarding `COc1ccc(CCO)cc1OC`, the T/C reads like this: (dose: 50.0 mg/kg/injection, schedule: Q01DX001 (ip), vehicle: carboxymethylcellulose (CMC)) 95 % of control; (dose: 100.0 mg/kg/injection, schedule: Q01DX009 (ip), vehicle: water) 93 % of control; (dose: 100.0 mg/kg/injection, schedule: Q04DX003 (ip), vehicle: water) 100 % of control; (dose: 200.0 mg/kg/injection, schedule: Q01DX009 (ip), vehicle: water) 93 % of control; (dose: 200.0 mg/kg/injection, schedule: Q04DX003 (ip), vehicle: water) 97 % of control; under setting [15], 97 % of control. Also, the T/C is, setting by setting: (dose: 400.0 mg/kg/injection, schedule: Q01DX009 (ip), vehicle: water) 95 % of control; (dose: 400.0 mg/kg/injection, schedule: Q04DX003 (ip), vehicle: water) 97 % of control.
For the compound `OC1(c2ccc(F)cc2)c2ccccc2-c2ccccc21`, the T/C (dose: 75.0 mg/kg/injection, schedule: Q01DX001 (ip), vehicle: other) is 96 % of control and the T/C (dose: 150.0 mg/kg/injection, schedule: Q01DX001 (ip), vehicle: other) is 96 % of control.
Regarding `O=C(CCN1CC1)Nc1cccc(NC(=O)CCN2CC2)c1`, the T/C is, setting by setting: (dose: 2.5 mg/kg/injection, schedule: Q01DX001 (ip), vehicle: Klucel (hydroxypropylcellulose) (HPC)) 112 % of control; (dose: 40.0 mg/kg/injection, schedule: Q01DX001 (ip), vehicle: Klucel (hydroxypropylcellulose) (HPC)) 153 % of control.
On to `COC(=O)c1ccc(C(=O)OC)nc1`, for which the T/C was 106 % of control (dose: 50.0 mg/kg/injection, schedule: Q04DX002 (ip), vehicle: Klucel (hydroxypropylcellulose) (HPC)); 95 % of control under setting [13]; 103 % of control under setting [14].
For the compound `CCCCCCCCCCCC(C1CCC(C)CC1)C1CCC(C)CC1` (stereo not given), the T/C reads like this: (dose: 100.0 mg/kg/injection, schedule: Q01DX001 (ip), vehicle: saline with Tween-80) 95 % of control; (dose: 400.0 mg/kg/injection, schedule: Q01DX001 (ip), vehicle: saline with Tween-80) 89 % of control.
Take `C1C2OC2CC2OC12` (stereo not given): the T/C is, setting by setting: under setting [10], 95 % of control; under setting [11], 96 % of control; under setting [12], 95 % of control.
With `OCCNCCc1ccccc1`, the T/C reads like this: (dose: 75.0 mg/kg/injection, schedule: Q01DX009 (ip), vehicle: carboxymethylcellulose (CMC)) 104 % of control; (dose: 150.0 mg/kg/injection, schedule: Q01DX009 (ip), vehicle: carboxymethylcellulose (CMC)) 107 % of control.
